# Test results taken from patent publication US7034162B2, “Amorphous form of 3-[2-(dimethylamino) ethyl]-N-methyl-1H-indole-5-methane sulfonamide succinate (sumatriptan succinate)” (Dr. Reddy's Laboratories Limited, priority 2000, dated 2006).
# Test: thermal stability of the solid (stated property, no method described)
# Type: physicochemical
# Details: solid amorphous form; test conditions not given
smiles,measurement,value
"CNS(=O)(=O)Cc1ccc2[nH]cc(CCN(C)C)c2c1.O=C(O)CCC(=O)O [amorphous form of Sumatriptan succinate, 3-[2-(dimethylamino)ethyl]-N-methyl-1H-indole-5-methane sulfonamide succinate]",thermal stability of the solid,thermally stable
